Data: patent US5863901A, “Use of bradykinin antagonists for the production of pharmaceuticals for the treatment of chronic fibrogenetic liver disorders and acute liver disorders” (Hoechst Aktiengesellschaft, priority 1996, dated 1999)

Tested on: rats with carbon tetrachloride-induced hepatic fibrosis
Test: Saluresis and diuresis test: urine and electrolyte excretion in rats with carbon tetrachloride-induced hepatic fibrosis
Type: in vivo, Wistar rats
Conditions: for Chloride excretion / Potassium excretion / Sodium excretion / Urine volume: 0.3 mg/kg s.c. at 0 and 6 h, mean value, n = 10, CCl4 fibrosis rats
Protocol: Wistar rats were used (breeder Hoechst AG, Kastengrund) with an initial body weight of 120-150 g.
Hepatic fibrosis was induced as described by Bickel et al., J. Hepatol., 13 (Suppl. 3) (1991) 26-33. The animals received carbon tetrachloride (CCl4) twice-weekly in a dose of 1 ml/kg orally for at least 6 weeks. The fibrosis of the liver was verified by means of the collagen content of the liver and liver-relevant serum parameters (bilirubin, ALAT, bile acids).
In the course of the fibrogenesis, the animals were kept under standard conditions as follows: day/night rhythm (light phase from 6.30 to 18.30), room temperature 22±2° C. and relative atmospheric humidity 60±10%. The animals received standardized rat feed (Altromin® 1321) and water ad libitum.
At the time of the diuresis test, the animals had reached weights of between 200 and 320 g. Food had already been withdrawn from the animals 16 h before the test and withheld during the entire test. The animals were additionally permitted free access to water up to the actual start of the test. For the duration of the diuresis test, the animals were kept in special diuresis cages. Controlled diuresis was induced with an oral dose of 20 ml of water per kg of body weight at time 0 h. The excretion of electrolytes and urine volumes were determined separately for each animal in the collection periods from […] and 6-24 h. Five days later, the test was carried out again on the same animals with administration of bradykinin antagonists. Animals received 0.3 mg/kg each of HOE 140 s.c. at time 0 and 6 h, dissolved in 5 ml of saline solution per kg of body weight.
Sodium and potassium were determined by flame photometry (Eppendorf flame photometer, Hamburg). Chloride was measured argentometrically by means of potentiometric end-point determination (Eppendorf chloride meter, Hamburg). The analytical results were used to calculate the urine excretion (ml/kg of body weight) and electrolyte excretion (mmol/kg of body weight).
The results are indicated as arithmetic means and standard deviation (SD). Statistical checking was carried out by the T test or, in the case of deviation from the normal distribution, by the nonparametric Mann-Whitney test.

NC(N)=NCCC[C@@H](N)C(=O)N[C@@H](CCCN=C(N)N)C(=O)N1CCC[C@H]1C(=O)N1C[C@H](O)C[C@H]1C(=O)NCC(=O)N[C@@H](Cc1cccs1)C(=O)N[C@@H](CO)C(=O)N1Cc2ccccc2C[C@@H]1C(=O)N1[C@H](C(=O)N[C@@H](CCCN=C(N)N)C(=O)O)C[C@@H]2CCCC[C@@H]21 [HOE 140, H-D-Arg-Arg-Pro-Hyp-Gly-Thi-Ser-D-Tic-Oic-Arg-OH]
Chloride excretion (collection period 1-5 h): 0.35 mmol/kg
Potassium excretion (collection period 1-5 h): 0.51 mmol/kg
Sodium excretion (collection period 1-5 h): 0.48 mmol/kg
Urine volume (collection period 1-5 h): 26.59 mL/kg
Chloride excretion (collection period 6-24 h): 3.27 mmol/kg
Potassium excretion (collection period 6-24 h): 2.10 mmol/kg
Sodium excretion (collection period 6-24 h): 4.10 mmol/kg
Urine volume (collection period 6-24 h): 31.03 mL/kg
Natriuresis / sodium excretion (result in words) (rats with carbon tetrachloride-induced hepatic fibrosis, versus control run in the same animals): marked, statistically significant natriuresis
